According to BigSolDB 2.1:

CC1=NN(c2ccccc2)C(=O)C1
solubility (mole fraction)
Conditions | 273.15 K | 278.15 K | 283.15 K | 288.15 K | 293.15 K | 298.15 K | 303.15 K | 308.15 K | 313.15 K
in acetonitrile | 0.00554 | 0.00717 | 0.0092 | 0.0116 | 0.0144 | 0.018 | 0.0218 | 0.0265 | 0.0314
in ethanol | 0.0172 | 0.0197 | 0.0226 | 0.0253 | 0.0285 | 0.0321 | 0.0358 | 0.0397 | 0.0445
in ethyl acetate | 0.0152 | 0.0173 | 0.0196 | 0.0223 | 0.0253 | 0.0284 | 0.0323 | 0.0368 | 0.0419
in methanol | 0.0108 | 0.013 | 0.0153 | 0.0179 | 0.0208 | 0.0238 | 0.0274 | 0.0312 | 0.0354
in n-propanol | 0.0199 | 0.0222 | 0.0249 | 0.028 | 0.0317 | 0.0353 | 0.0393 | 0.0433 | 0.0472
